Experimental data as given in ChEMBL document CHEMBL1201862, “PubChem BioAssay data set” (2004).
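Cultured in 96-well plates, cells were exposed to test compound for 48 hours across five concentrations. At the GI50, growth is halved.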 Active and inactive are the calls of the source. Cut-off read from the data, not from the text of the source: active = GI50 up to about 1.1 µM and inactive = higher.

Legend:
Test in all cases: NCI-60 cell line screen, 48 h
MDA-MB-435 = system: MDA-MB-435
OVCAR-8 = system: OVCAR-8
HCT-116 = system: HCT-116
MOLT-4 = system: MOLT-4
K562 = system: K562
NCI-H226 = system: NCI-H226
LOX IMVI = system: LOX IMVI
A498 = system: A498
OVCAR-4 = system: OVCAR-4
SK-OV-3 = system: SK-OV-3
SR = system: SR
SF-295 = system: SF-295
MDA-MB-231 = system: MDA-MB-231
IGROV-1 = system: IGROV-1
SNB-75 = system: SNB-75
SW-620 = system: SW-620
CAKI-1 = system: CAKI-1
T47D = system: T47D
HOP-62 = system: HOP-62
CCRF-CEM = system: CCRF-CEM
HT-29 = system: HT-29
EKVX = system: EKVX
SN12C = system: SN12C
PC-3 = system: PC-3
NCI-H460 = system: NCI-H460
SF-268 = system: SF-268
OVCAR-5 = system: OVCAR-5
SK-MEL-2 = system: SK-MEL-2
SK-MEL-28 = system: SK-MEL-28
ACHN = system: ACHN
M14 = system: M14
RPMI-8226 = system: RPMI-8226
Hs-578T = system: Hs-578T
HCT-15 = system: HCT-15
786-0 = system: 786-0
HOP-92 = system: HOP-92
UO-31 = system: UO-31
NCI-H522 = system: NCI-H522
SK-MEL-5 = system: SK-MEL-5
NCI/ADR-RES = system: NCI/ADR-RES
COLO 205 = system: COLO 205
TK-10 = system: TK-10
NCI-H23 = system: NCI-H23
U-251 = system: U-251
SF-539 = system: SF-539
HCC 2998 = system: HCC 2998
SNB-19 = system: SNB-19
KM12 = system: KM12
OVCAR-3 = system: OVCAR-3
UACC-257 = system: UACC-257
DU-145 = system: DU-145
MDA-N = system: MDA-N
MCF7 = system: MCF7
Malme-3M = system: Malme-3M
RXF 393 = system: RXF 393
A549 = system: A549
UACC-62 = system: UACC-62
HL-60 = system: HL-60

Cc1cc(-c2no[n+]([O-])c2-c2cc(C)sc2S(C)(=O)=O)c(S(C)(=O)=O)s1
GI50 (MDA-MB-435): > 100 µM (inactive)
GI50 (OVCAR-8): > 100 µM (inactive)
GI50 (HCT-116): > 100 µM (inactive)
GI50 (MOLT-4): > 100 µM (inactive)
GI50 (K562): 83.4 µM (inactive)
GI50 (NCI-H226): > 100 µM (inactive)
GI50 (LOX IMVI): > 100 µM (inactive)
GI50 (A498): > 100 µM (inactive)
GI50 (OVCAR-4): > 100 µM (inactive)
GI50 (SK-OV-3): > 100 µM (inactive)
GI50 (SR): > 100 µM (inactive)
GI50 (SF-295): > 100 µM (inactive)
GI50 (MDA-MB-231): > 100 µM (inactive)
GI50 (IGROV-1): > 100 µM (inactive)
GI50 (SNB-75): > 100 µM (inactive)
GI50 (SW-620): > 100 µM (inactive)
GI50 (CAKI-1): > 100 µM (inactive)
GI50 (T47D): 89.5 µM (inactive)
GI50 (HOP-62): > 100 µM (inactive)
GI50 (CCRF-CEM): > 100 µM (inactive)
GI50 (HT-29): > 100 µM (inactive)
GI50 (EKVX): > 100 µM (inactive)
GI50 (SN12C): > 100 µM (inactive)
GI50 (PC-3): > 100 µM (inactive)
GI50 (NCI-H460): > 100 µM (inactive)
GI50 (SF-268): > 100 µM (inactive)
GI50 (OVCAR-5): > 100 µM (inactive)
GI50 (SK-MEL-2): > 100 µM (inactive)
GI50 (SK-MEL-28): > 100 µM (inactive)
GI50 (ACHN): > 100 µM (inactive)
GI50 (M14): > 100 µM (inactive)
GI50 (RPMI-8226): > 100 µM (inactive)
GI50 (Hs-578T): > 100 µM (inactive)
GI50 (HCT-15): > 100 µM
GI50 (786-0): > 100 µM (inactive)
GI50 (HOP-92): > 100 µM (inactive)
GI50 (UO-31): > 100 µM (inactive)
GI50 (NCI-H522): 87.5 µM (inactive)
GI50 (SK-MEL-5): > 100 µM (inactive)
GI50 (NCI/ADR-RES): > 100 µM (inactive)
GI50 (COLO 205): > 100 µM (inactive)
GI50 (TK-10): > 100 µM (inactive)
GI50 (NCI-H23): > 100 µM (inactive)
GI50 (U-251): > 100 µM (inactive)
GI50 (SF-539): > 100 µM (inactive)
GI50 (HCC 2998): > 100 µM (inactive)
GI50 (SNB-19): 20.2 µM (inactive)
GI50 (KM12): > 100 µM (inactive)
GI50 (OVCAR-3): > 100 µM (inactive)

NS(=O)(=O)c1ccc(/C=C/c2cccc(O)c2)cc1
GI50 (UACC-257): 69.5 µM (inactive)
GI50 (HCT-116): 35.9 µM (inactive)
GI50 (A498): 59.6 µM (inactive)
GI50 (SK-OV-3): 38.4 µM (inactive)
GI50 (DU-145): 47.8 µM (inactive)
GI50 (SF-295): 46.2 µM (inactive)
GI50 (MDA-MB-231): 38 µM (inactive)
GI50 (MDA-N): 36.5 µM (inactive)
GI50 (SNB-75): 46.8 µM (inactive)
GI50 (SW-620): 38.6 µM (inactive)
GI50 (MCF7): 38.9 µM (inactive)
GI50 (T47D): 25.6 µM (inactive)
GI50 (HOP-62): > 100 µM (inactive)
GI50 (EKVX): 55.1 µM (inactive)
GI50 (SN12C): 50.1 µM (inactive)
GI50 (PC-3): 36.7 µM (inactive)
GI50 (NCI-H460): 27.2 µM (inactive)
GI50 (OVCAR-5): > 100 µM (inactive)
GI50 (SK-MEL-2): 25.4 µM (inactive)
GI50 (SK-MEL-28): 74.5 µM (inactive)
GI50 (Malme-3M): 75.3 µM (inactive)
GI50 (M14): 55.6 µM (inactive)
GI50 (786-0): > 100 µM (inactive)
GI50 (UO-31): 20.4 µM (inactive)
GI50 (SK-MEL-5): 22.2 µM (inactive)
GI50 (NCI/ADR-RES): 32.9 µM (inactive)
GI50 (COLO 205): 20 µM (inactive)
GI50 (TK-10): 28.7 µM (inactive)
GI50 (HCC 2998): 77.4 µM (inactive)
GI50 (SNB-19): 76.4 µM (inactive)
GI50 (RXF 393): > 100 µM (inactive)
GI50 (OVCAR-3): 25.9 µM (inactive)

CNc1ncnc2c1nnn2C
GI50 (UACC-257): > 100 µM (inactive)
GI50 (A549): > 100 µM (inactive)
GI50 (MDA-MB-435): > 100 µM (inactive)
GI50 (OVCAR-8): > 100 µM (inactive)
GI50 (HCT-116): > 100 µM (inactive)
GI50 (MOLT-4): > 100 µM (inactive)
GI50 (K562): > 100 µM (inactive)
GI50 (NCI-H226): > 100 µM (inactive)
GI50 (LOX IMVI): > 100 µM (inactive)
GI50 (UACC-62): > 100 µM (inactive)
GI50 (A498): > 100 µM (inactive)
GI50 (OVCAR-4): > 100 µM (inactive)
GI50 (SK-OV-3): > 100 µM (inactive)
GI50 (DU-145): > 100 µM (inactive)
GI50 (SF-295): > 100 µM (inactive)
GI50 (MDA-N): > 100 µM (inactive)
GI50 (IGROV-1): > 100 µM (inactive)
GI50 (SNB-75): > 100 µM (inactive)
GI50 (SW-620): > 100 µM (inactive)
GI50 (MCF7): > 100 µM (inactive)
GI50 (CAKI-1): > 100 µM (inactive)
GI50 (T47D): > 100 µM (inactive)
GI50 (HOP-62): > 100 µM (inactive)
GI50 (CCRF-CEM): > 100 µM (inactive)
GI50 (HT-29): > 100 µM (inactive)
GI50 (EKVX): > 100 µM (inactive)
GI50 (SN12C): > 100 µM (inactive)
GI50 (PC-3): > 100 µM (inactive)
GI50 (SK-MEL-2): > 100 µM (inactive)
GI50 (SK-MEL-28): > 100 µM (inactive)
GI50 (Malme-3M): > 100 µM (inactive)
GI50 (ACHN): > 100 µM (inactive)
GI50 (M14): > 100 µM (inactive)
GI50 (RPMI-8226): > 100 µM (inactive)
GI50 (HCT-15): > 100 µM
GI50 (786-0): > 100 µM (inactive)
GI50 (HOP-92): > 100 µM (inactive)
GI50 (UO-31): > 100 µM (inactive)
GI50 (NCI-H522): > 100 µM (inactive)
GI50 (SK-MEL-5): > 100 µM (inactive)
GI50 (NCI/ADR-RES): > 100 µM (inactive)
GI50 (COLO 205): > 100 µM (inactive)
GI50 (TK-10): > 100 µM (inactive)
GI50 (NCI-H23): > 100 µM (inactive)
GI50 (U-251): > 100 µM (inactive)
GI50 (SF-539): > 100 µM (inactive)
GI50 (HCC 2998): > 100 µM (inactive)
GI50 (SNB-19): > 100 µM (inactive)
GI50 (HL-60): > 100 µM (inactive)
GI50 (KM12): > 100 µM (inactive)
GI50 (RXF 393): > 100 µM (inactive)
GI50 (OVCAR-3): > 100 µM (inactive)
